Patent US20120323164A1, “PHOTODYNAMIC THERAPY WITH PHTHALOCYANINES AND RADICAL SOURCES” (Case Western Reserve University, priority 2011, published 2012)
Like-named read-outs stand apart in the source and are kept apart here.

How the values were obtained:
[1] = for decomp (%) of Pc 4: Pc 4 in toluene ~9 μM, white light 1.2 kJ/s/m^2
Experimental: (§1) The beam intensity was checked before each measurement.
(§2) Solutions for the photodecomposition experiments were prepared as follows.

[2] = Photodecomposition of phthalocyanines in toluene under white light, no added radical source; conditions: no added alkene; for decomp (%): toluene ~9 μM, white light 1.2 kJ/s/m^2
Experimental: The distance between the cuvette face and the lamp filament was 30 cm. Determination of the beam intensity at the cuvette face was made with a powermeter (Powermax, pm10, Coherent, Santa Clara, Calif.). The beam intensity was checked before each measurement.
Solutions for the photodecomposition experiments were prepared as follows. […] This assumption was justified on the basis that all of the silicon phthalocyanines studied contained simple, unsubstituted phthalocyanine rings. The extinction coefficients of the aluminum phthalocyanines were assumed to be 2.3×10^5, the extinction coefficient of AlPcOSi(CH3)2(CH2)3N(CH3)2, Pc 1.
The absorbance of the Q band of the solution, A, was determined with a spectrophotometer (Lambda 25, Perkin Elmer, Shelton, Conn.; fused silica cuvettes, 1.00 cm, 3.5 mL, Fisher Scientific). From A, ε, the cuvette path length, b, and Beer's law, the concentration of the solution, c, was determined. The solution was then diluted with toluene to a concentration of 9.2 μM. To verify that this was the concentration of the solution, its absorbance was measured again.
In a typical determination, the solution (3.00 mL) was placed in a cuvette (1.00 cm, 3.5 mL, Fisher Scientific, Pittsburgh, Pa.) and its absorbance was measured with the spectrometer (Lambda 25) before irradiation and at 2, 4, 6 and 8 h.
where A0 is the absorbance of the solution at time 0, and At is the absorbance at time t.

[3] = Photodecomposition of Al and Si phthalocyanines in toluene in the presence of squalene under white light; format: physicochemical; conditions: toluene ~9 μM, squalene 1:1000 mole ratio, white light 1.2 kJ/s/m^2, air
Experimental: as §1, §2

[4] = Qualitative solubility in organic solvents
[5] = time 0 h, alkene 1:1000 mole ratio
[6] = time 2 h, alkene 1:1000 mole ratio
[7] = time 4 h, alkene 1:1000 mole ratio
[8] = time 6 h, alkene 1:1000 mole ratio
[9] = time 8 h, alkene 1:1000 mole ratio
[10] = time 2 h, radiation 86 kJ/mol × 10^−6
[11] = time 4 h, radiation 172 kJ/mol × 10^−6
[12] = time 6 h, radiation 258 kJ/mol × 10^−6
[13] = time 8 h, radiation 344 kJ/mol × 10^−6
[14] = time 0 h, alkene 1:100 mole ratio
[15] = time 2 h, alkene 1:100 mole ratio
[16] = time 4 h, alkene 1:100 mole ratio
[17] = time 6 h, alkene 1:100 mole ratio
[18] = time 8 h, alkene 1:100 mole ratio

Compound: C1=C\CC/C=C\CC/1 [1,5-cyclooctadiene]
- decomp (%) of Pc 4 [1, 5]: 0%
- decomp (%) of Pc 4 [1, 6]: 23%
- decomp (%) of Pc 4 [1, 7]: 49%
- decomp (%) of Pc 4 [1, 8]: 69%
- decomp (%) of Pc 4 [1, 9]: 83%

Compound: CN(C)CCC[Si](C)(C)O[Si]1(O)n2c3c4ccccc4c2N=C2N=C(N=c4c5ccccc5c(n41)=NC1=NC(=N3)c3ccccc31)c1ccccc12 (stereo not drawn) [Pc 4, HOSiPcOSi(CH3)2(CH2)3N(CH3)2]
- decomp (%) ([2]; time 0 h): 0%
- decomp (%) [2, 10]: 11%
- decomp (%) [2, 11]: 12%
- decomp (%) [2, 12]: 12%
- decomp (%) [2, 13]: 13%
- decomp (%) ([3]; time 0 h): 0%
- decomp (%) [3, 10]: 57%
- decomp (%) [3, 11]: 81%
- decomp (%) [3, 12]: 92%
- decomp (%) [3, 13]: 96%

Compound: CC(C)CCCC(C)CCCC(C)CCOc1cc2c(cc1OCCC(C)CCCC(C)CCCC(C)C)-c1nc-2nc2[nH]c(nc3nc(nc4[nH]c(n1)c1ccccc41)-c1ccccc1-3)c1ccccc21 (stereo not drawn) [Pc 272, H2Pc[2,3-O(C2H4CH(CH3)CH2)2C2H4CH(CH3)2]2]
- solubility (in words) [4]: soluble in CH2Cl2 and toluene, and slightly soluble in dimethylformamide and hexanes

Compound: C=C[Si](C=C)(C=C)O[Si]1(O[Si](C=C)(C=C)C=C)n2c3c4ccccc4c2N=C2N=C(N=c4c5ccccc5c(n41)=NC1=NC(=N3)c3ccccc31)c1ccccc12 [Pc 279, SiPc[OSi(CH═CH2)3]2]
- decomp (%) ([2]; time 0 h): 0%
- decomp (%) [2, 10]: 0%
- decomp (%) [2, 11]: 0%
- decomp (%) [2, 12]: 0%
- decomp (%) [2, 13]: 0%
- photostability (in words) ([2]; white light, toluene): quite stable, remaining unchanged during 8 hours of irradiation
- solubility (in words) [4]: soluble in CH2Cl2, dimethylformamide, pyridine and toluene, and insoluble in hexanes and methanol

Compound: CCCCC/C=C\C/C=C\CCCCCCCC(=O)O.CCCCC/C=C\C/C=C\CCCCCCCC(=O)O.CN(C)CCC[Si](C)(C)O[Si]1(O[Si](C)(C)CCCN(C)C)n2c3c4ccccc4c2N=C2N=C(N=c4c5ccccc5c(n41)=NC1=NC(=N3)c3ccccc31)c1ccccc12 [Pc 289, SiPc[OSi(CH3)2(CH2)3NH(CH3)2]2^2+ [OC(O)(CH2)6(CH2CH═CH)2(CH2)4CH3]2]
- decomp (%) ([2]; time 0 h): 0%
- decomp (%) [2, 10]: 18%
- decomp (%) [2, 11]: 19%
- decomp (%) [2, 12]: 20%
- decomp (%) [2, 13]: 21%
- solubility (in words) [4]: soluble in ethanol, CH2Cl2 and dimethylformamide, moderately soluble in toluene, and insoluble in hexanes

Compound: CC/C=C\C/C=C\C/C=C\CCCCCCCC(=O)O.CC/C=C\C/C=C\C/C=C\CCCCCCCC(=O)O.CN(C)CCC[Si](C)(C)O[Si]1(O[Si](C)(C)CCCN(C)C)n2c3c4ccccc4c2N=C2N=C(N=c4c5ccccc5c(n41)=NC1=NC(=N3)c3ccccc31)c1ccccc12 [Pc 290, SiPc[OSi(CH3)2(CH2)3NH(CH3)2]2^2+ [OC(O)(CH2)6(CH2CH═CH)3CH2CH3]2]
- solubility (in words) [4]: soluble in ethanol, CH2Cl2 and dimethylformamide, moderately soluble in toluene, and insoluble in hexanes

Compound: CC1=C(/C=C/C(C)=C/C=C/C(C)=C/C(=O)O)C(C)(C)CCC1.CC1=C(/C=C/C(C)=C/C=C/C(C)=C/C(=O)O)C(C)(C)CCC1.CN(C)CCC[Si](C)(C)O[Si]1(O[Si](C)(C)CCCN(C)C)n2c3c4ccccc4c2N=C2N=C(N=c4c5ccccc5c(n41)=NC1=NC(=N3)c3ccccc31)c1ccccc12 [Pc 293, SiPc[OSi(CH3)2(CH2)3NH(CH3)2]2^2+ [OC(O)(CH═C(CH3)CH═CH)2C6H6(CH3)3]2]
- solubility (in words) [4]: soluble in ethanol, CH2Cl2 and dimethylformamide, moderately soluble in toluene, and insoluble in hexanes

Compound: CCCCCCCC[Si](CCCCCCCC)(CCCCCCCC)O[Si]1(O[Si](CCCCCCCC)(CCCCCCCC)CCCCCCCC)n2c3c4ccccc4c2N=C2N=C(N=c4c5ccccc5c(n41)=NC1=NC(=N3)c3ccccc31)c1ccccc12 [Pc 308, SiPc(OSiOct3)2]
- decomp (%) ([3]; time 0 h): 0%
- decomp (%) [3, 10]: 10%
- decomp (%) [3, 11]: 15%
- decomp (%) [3, 12]: 21%
- decomp (%) [3, 13]: 26%

Compound: CC(C)=CCC/C(C)=C/CC/C(C)=C/CO [farnesol]
- effectiveness of alkene in decreasing photostability of Pc 4 (in words) [1]: most effective
- decomp (%) of Pc 4 [1, 14]: 0%
- decomp (%) of Pc 4 [1, 5]: 0%
- decomp (%) of Pc 4 [1, 15]: 13%
- decomp (%) of Pc 4 [1, 6]: 79%
- decomp (%) of Pc 4 [1, 16]: 20%
- decomp (%) of Pc 4 [1, 7]: 93%
- decomp (%) of Pc 4 [1, 17]: 38%
- decomp (%) of Pc 4 [1, 8]: 99%
- decomp (%) of Pc 4 [1, 18]: 50%
- decomp (%) of Pc 4 [1, 9]: 99%

Compound: CC(C)=CCC/C(C)=C/CO [geraniol]
- effectiveness of alkene in decreasing photostability of Pc 4 (in words) [1]: most effective
- decomp (%) of Pc 4 [1, 14]: 0%
- decomp (%) of Pc 4 [1, 5]: 0%
- decomp (%) of Pc 4 [1, 15]: 10%
- decomp (%) of Pc 4 [1, 6]: 87%
- decomp (%) of Pc 4 [1, 16]: 14%
- decomp (%) of Pc 4 [1, 7]: 98%
- decomp (%) of Pc 4 [1, 17]: 21%
- decomp (%) of Pc 4 [1, 8]: 99%
- decomp (%) of Pc 4 [1, 18]: 30%
- decomp (%) of Pc 4 [1, 9]: 99%

Compound: CCCCC/C=C\C/C=C\CCCCCCCC(=O)O [linoleic acid]
- decomp (%) of Pc 4 [1, 5]: 0%
- decomp (%) of Pc 4 [1, 6]: 40%
- decomp (%) of Pc 4 [1, 7]: 72%
- decomp (%) of Pc 4 [1, 8]: 89%
- decomp (%) of Pc 4 [1, 9]: 99%

Compound: CC(C)=CCC/C(C)=C/CC/C(C)=C/CC/C=C(\C)CC/C=C(\C)CCC=C(C)C [squalene]
- decomp (%) of Pc 4 [1, 14]: 0%
- decomp (%) of Pc 4 [1, 5]: 0%
- decomp (%) of Pc 4 [1, 15]: 50%
- decomp (%) of Pc 4 [1, 6]: 57%
- decomp (%) of Pc 4 [1, 16]: 75%
- decomp (%) of Pc 4 [1, 7]: 81%
- decomp (%) of Pc 4 [1, 17]: 87%
- decomp (%) of Pc 4 [1, 8]: 92%
- decomp (%) of Pc 4 [1, 18]: 94%
- decomp (%) of Pc 4 [1, 9]: 96%

Compound: CoPc[2,3-O(C2H4CH(CH3)CH2)2C2H4CH(CH3)2]2 [Pc 273]
- solubility (in words) [4]: slightly soluble in CH2Cl2, dimethylformamide, toluene, and hexanes

Compound: HOSiPcOSi(CH3)2(CH2)3N(C2H5)2 [Pc 34]
- solubility (in words) [4]: soluble in CH2Cl2, dimethylformamide, and toluene, and insoluble in hexanes

Compound: NiPc[2,3-O(C2H4CH(CH3)CH2)2C2H4CH(CH3)2]2 [Pc 274]
- solubility (in words) [4]: slightly soluble in CH2Cl2, dimethylformamide, toluene, and hexanes

Compound: SiNc[OSi(CH3)2(CH2)3N(CH3)2]2 [Compound 41]
- solubility (in words) [4]: soluble in CH2Cl2, dimethylformamide, and toluene, and insoluble in hexanes

Compound: ZnPc[2,3-O(C2H4CH(CH3)CH2)2C2H4CH(CH3)2]2 [Pc 275]
- solubility (in words) [4]: slightly soluble in CH2Cl2, dimethylformamide, toluene, and hexanes
